According to patent publication US20200113954A1, “PHARMACEUTICAL AND FOOD COMPOSITION FOR THE TREATMENT OF VAGINAL AND INTESTINAL DYSBIOSIS” (priority 2018, published 2020):

System: vulvovaginal candidiasis
Assay: Third pilot study: open-label, Microbio+ capsules vs topical clotrimazole in women with uncomplicated vulvovaginal candidiasis
Format: in vivo, human
Text: Study of the Effect of Microbio+ CAPSULES in Woman with Uncomplicated Vulvovaginal Candidiasis.
The primary endpoints are:
reduction in frequency of recurrences
re-equilibrium of the vaginal microflora (through assessment of clinical signs and Lactobacillus grade) in women with uncomplicated vulvovaginal candidiasis.
CLOTRIMAZOLE group: single administration of topical antifungal treatment with no maintenance cycle
Group B: Microbio+ for 15 consecutive days and maintenance cycle of 5 days a month in premenstrual phase for 3 months
Uncomplicated Vulvovaginal candidiasis;
Microscopic diagnosis of vulvovaginal candidiasis through wet mount or vaginal culture;
Not menopausal (defined as 12 or more months since last menstrual cycle at appropriate age);
The total study duration is 12 weeks.
Diagnosis (V0) and start of treatment
Day 15, day 30 and day 90 visits (V1, 2 and 3): At each visit, the patient was asked if they had taken the treatment regularly and if they had experienced any clinical symptoms or adverse events. A clinical examination, microscopic wet mount examination or (if available) cultural examination were performed to establish the effect of the treatment and the lactobacillus grade.
Primary outcomes: • Evaluation of the efficacy of Microbio+ in women with acute VVC: • 1. Clinical cure rate (resolution of symptoms) of VVC at 15, 30 and 90 days; • 2. Microbiological and microscopic cure of VVC (negative vaginal culture or absence of hyphae at wet mount); • 3. Recurrence rate (defined as the presence of symptoms or positive fungal culture or presence of hyphae at wet mount) in 3-month follow-up period.
Secondary outcomes: • Safety and tolerability of Microbio+ in adult women.

[1] = at 15 and 30 days, 20 patients per arm
[2] = within the 3 months of follow-up, 20 patients per arm

With `Clc1ccccc1C(c1ccccc1)(c1ccccc1)n1ccnc1` [clotrimazole, Clotrimazole] the “clinical and microbiological cure in 1 month” value (1 month, FIG. 6 summary) was 80%, the “clinical and microbiological cure, number of women” value [1] was 16 women and the “clinical and microbiological cure, percent of women” value [1] was 80%. For the same compound, the “symptomatic recurrences (symptom recurrence rate), percent of women” value [2] was 40% and the “symptomatic recurrences, number of women” value [2] was 8 women.
